Laboratory results from patent US10689400B2, “Macrocycle kinase inhibitors” (Turning Point Therapeutics, Inc., priority 2016, dated 2020).

Key:
BTK kinase = target: T1, BTK kinase (Homo sapiens, UniProt Q06187); assay: BTK biochemical kinase assay (radiometric; Eurofins KinaseProfiler / Reaction Biology); conditions: ATP 10 μM
T1 construct: purchased Eurofins (KinaseProfiler) / Reaction Biology Corporation
Experimental: The Compounds were tested against BTK kinase using the Eurofins standard KinaseProfiler™ assays and following the relevant standard operating procedures. Protein kinases were assayed in a radiometric format. Full details of the assay for each kinase are available on the Eurofins website, or in the accompanying protocol document. All compounds were prepared to a working stock of 50× final assay concentration in 100% DMSO. Where appropriate, more concentrated stocks were diluted manually to 50× using 100% DMSO. Compounds supplied as powders were reconstituted to a 10 mM stock in 100% DMSO before further dilution to 50×. The required volume of the 50× stock of test compound was added to the assay well, before a reaction mix containing the enzyme and substrate was added. The reaction was initiated by the addition of ATP at the selected 10 μM concentration. There was no pre-incubation of the compound with the enzyme/substrate mix prior to ATP addition. For IC50 determinations, data are analysed using XLFit version 5.3 (ID Business Solutions). Sigmoidal dose-response (variable slope) curves are fit based on the mean result for each test concentration using non-linear regression analysis. Where the top and/or bottom of the curve fall >10% out with 100 and 0, respectively, either or both of these limits may be constrained at 100 and 0, provided that the QC criterion on R^2 is met.
The BTK biochemical kinase assay was also performed at Reaction Biology Corporation (www.reactionbiology.com, Malvern, Pa.) following the procedures described in the reference (Anastassiadis T, et al Nat Biotechnol. 2011, 29, 1039). Specific kinase/substrate pairs along with required cofactors were prepared in reaction buffer; 20 mM Hepes pH 7.5, 10 mM MgCl2, 1 mM EGTA, 0.02% Brij35, 0.02 mg/ml BSA, 0.1 mM Na3VO4, 2 mM DTT, 1% DMSO (for specific details of individual kinase reaction components see Supplementary Table 2). Compounds were delivered into the reaction, followed ˜20 minutes later by addition of a mixture of ATP (Sigma, St. Louis Mo.) and ^33P ATP (Perkin Elmer, Waltham Mass.) to a final concentration of 10 μM. Reactions were carried out at room temperature for 120 min, followed by spotting of the reactions onto P81 ion exchange filter paper (Whatman Inc., Piscataway, N.J.). Unbound phosphate was removed by extensive washing of filters in 0.75% phosphoric acid. […] IC50 values and curve fits were obtained using Prism (GraphPad Software).

[1] = test system: SET-2 cells (harboring endogenous JAK2 V618F point mutation); assay: SET-2 cell proliferation assay (CellTiter-Glo, 72 hours); format: cell-based; conditions: Homo sapiens, SET-2 essential thrombocythemia cell line, 72 hours incubation, read-out: Cell Proliferation JAK2 SET2 Cell IC50
Experimental: (§1) Alternatively: Colorectal cell line KM12 (harboring endogenous TPM3-TRKA fusion gene) cells were cultured in DMEM medium, supplemented with 10% fetal bovine serum and 100 U/mL of penicillin/streptomycin. Essential thrombocythemia cell line SET-2 cells (harboring endogenous JAK2 V618F point mutation) were cultured in RPMI medium, supplemented with 10% fetal bovine serum and 100 U/mL of penicillin/streptomycin. 5000 cells were seeded in 384 well white plate for 24 hours before compounds treatment. Cell proliferation was measured using CellTiter-Glo luciferase-based ATP detection assay (Promega) following the manufactures's protocol after 72 hours incubation. IC50 determinations were performed using GraphPad Prism software (GraphPad, Inc., San Diego, Calif.).

[2] = test system: KM12 cells (harboring endogenous TPM3-TRKA fusion gene); assay: KM12 cell proliferation assay (CellTiter-Glo, 72 hours); format: cell-based; conditions: Homo sapiens, KM12 colorectal cell line, 72 hours incubation
Experimental: as §1, with “Colorectal” for “Alternatively: Colorectal”, “lines KM 12” for “line KM12”, “DMEM” for “DMEM medium, supplemented with 10% fetal bovine serum and 100 U/mL of penicillin/streptomycin. Essential thrombocythemia cell line SET-2 cells (harboring endogenous JAK2 V618F point mutation) were cultured in RPMI”
as §1

T1 sequence (Q06187 whole entry): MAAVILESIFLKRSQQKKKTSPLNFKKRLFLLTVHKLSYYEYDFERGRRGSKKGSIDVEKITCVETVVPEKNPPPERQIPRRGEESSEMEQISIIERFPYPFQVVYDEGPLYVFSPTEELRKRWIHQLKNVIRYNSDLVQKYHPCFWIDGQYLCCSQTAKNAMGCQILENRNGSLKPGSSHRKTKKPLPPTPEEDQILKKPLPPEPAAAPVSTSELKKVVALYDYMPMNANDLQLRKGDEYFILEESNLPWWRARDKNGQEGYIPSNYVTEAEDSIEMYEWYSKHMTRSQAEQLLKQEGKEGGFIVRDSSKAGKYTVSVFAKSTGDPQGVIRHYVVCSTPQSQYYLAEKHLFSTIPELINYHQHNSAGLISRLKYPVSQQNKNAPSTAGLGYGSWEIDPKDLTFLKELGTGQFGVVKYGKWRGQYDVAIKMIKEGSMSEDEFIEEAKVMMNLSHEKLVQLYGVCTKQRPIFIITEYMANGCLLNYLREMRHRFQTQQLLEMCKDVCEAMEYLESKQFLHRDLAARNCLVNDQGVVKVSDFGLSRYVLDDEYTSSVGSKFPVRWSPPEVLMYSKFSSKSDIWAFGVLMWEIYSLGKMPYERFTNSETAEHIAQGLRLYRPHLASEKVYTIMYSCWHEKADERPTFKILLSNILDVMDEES

| SMILES | IC50 (BTK kinase) [nM] | IC50 [1] [nM] | IC50 [2] [nM] |
| --- | --- | --- | --- |
| C[C@H]1CNC(=O)c2cnn3ccc(nc23)N[C@H](C)c2c(ccc(F)c2Cl)O1 [Compound 2, (7S,13R)-12-chloro-11-fluoro-7,13-dimethyl-6,7,13,14-tetrahydro-1,15-ethenopyrazolo[4,3-f][1,4,8,10]benzoxatriazacyclotridecin-4(5H)-one] | 2.53 | 3000 | 5.1 |
| C[C@H]1Nc2ccn3ncc(c3n2)C(=O)NC[C@@H](CO)Oc2c(F)cc(F)cc21 [Compound 3, (7S,13R)-9,11-difluoro-7-(hydroxymethyl)-13-methyl-6,7,13,14-tetrahydro-1,15-ethenopyrazolo[4,3-f][1,4,8,10]benzoxatriazacyclotridecin-4(5H)-one] |  | 15.5 | 21.5 |
| C[C@H]1Nc2ccn3ncc(c3n2)C(=O)NC[C@@H](CO)Oc2ccc(F)c(Cl)c21 [Compound 4, (7S,13R)-12-chloro-11-fluoro-7-(hydroxymethyl)-13-methyl-6,7,13,14-tetrahydro-1,15-ethenopyrazolo[4,3-f][1,4,8,10]benzoxatriazacyclotridecin-4(5H)-one] |  | 3000 | 45.4 |
| C[C@H]1Nc2ccn3ncc(c3n2)C(=O)NCCOc2c(Cl)cc(F)cc21 [Compound 6, (13R)-9-chloro-11-fluoro-13-methyl-6,7,13,14-tetrahydro-1,15-ethenopyrazolo[4,3-f][1,4,8,10]benzoxatriazacyclotridecin-4(5H)-one] | 64.4 | 78.2 | 4.2 |
| C[C@H]1CNC(=O)c2cnn3ccc(nc23)N[C@H](C)c2cc(F)cc(Br)c2O1 [Compound 7, (7S,13R)-9-bromo-11-fluoro-7,13-dimethyl-6,7,13,14-tetrahydro-1,15-ethenopyrazolo[4,3-f][1,4,8,10]benzoxatriazacyclotridecin-4(5H)-one] |  | 6.7 | 0.2 |
| CC(C)N1Cc2cc(F)cc(F)c2OCCNC(=O)c2cnn3ccc1nc23 [Compound 9, 9,11-difluoro-14-(propan-2-yl)-6,7,13,14-tetrahydro-1,15-ethenopyrazolo[4,3-f][1,4,8,10]benzoxatriazacyclotridecin-4(5H)-one] | 22.2 | 132 | 5.2 |
| CC(C)N1Cc2cc(F)cc(Cl)c2OCCNC(=O)c2cnn3ccc1nc23 [Compound 10, 9-chloro-11-fluoro-14-(propan-2-yl)-6,7,13,14-tetrahydro-1,15-ethenopyrazolo[4,3-f][1,4,8,10]benzoxatriazacyclotridecin-4(5H)-one] | 179 | 1480 | 0.1 |
| C[C@H]1CNC(=O)c2cnn3ccc(nc23)N[C@H](C)c2c(ccc(F)c2F)O1 [Compound 11, (7S,13R)-11,12-difluoro-7,13-dimethyl-6,7,13,14-tetrahydro-1,15-ethenopyrazolo[4,3-f][1,4,8,10]benzoxatriazacyclotridecin-4(5H)-one] | 14.2 | 3.9 | 0.2 |
| CC(C)Oc1cc(F)cc2c1OCCNC(=O)c1cnn3ccc(nc13)N[C@@H]2C [Compound 15, (13R)-11-fluoro-13-methyl-9-[(propan-2-yl)oxy]-6,7,13,14-tetrahydro-1,15-ethenopyrazolo[4,3-f][1,4,8,10]benzoxatriazacyclotridecin-4(5H)-one] | 154 | 500 | 2 |
| COc1cc(F)cc2c1OCCNC(=O)c1cnn3ccc(nc13)N[C@@H]2C [Compound 16, (13R)-11-fluoro-9-methoxy-13-methyl-6,7,13,14-tetrahydro-1,15-ethenopyrazolo[4,3-f][1,4,8,10]benzoxatriazacyclotridecin-4(5H)-one] | 450 | 300 | 13.9 |
| C[C@H]1Nc2ccn3ncc(c3n2)C(=O)NCCOc2c(O)cc(F)cc21 [Compound 17, (13R)-11-fluoro-9-hydroxy-13-methyl-6,7,13,14-tetrahydro-1,15-ethenopyrazolo[4,3-f][1,4,8,10]benzoxatriazacyclotridecin-4(5H)-one] | 48 | 600 | 15.4 |
| Cc1nn(C)cc1-c1cc(F)cc2c1O[C@@H](C)CNC(=O)c1cnn3ccc(nc13)N[C@@H]2C [Compound 20, (7S,13R)-9-(1,3-dimethyl-1H-pyrazol-4-yl)-11-fluoro-7,13-dimethyl-6,7,13,14-tetrahydro-1,15-ethenopyrazolo[4,3-f][1,4,8,10]benzoxatriazacyclotridecin-4(5H)-one] | 238 |  | 6.4 |

More lines, main results first:

| IC50 (BTK kinase) [nM] | SMILES | IC50 [1] [nM] | IC50 [2] [nM] |
| --- | --- | --- | --- |
| 2.47 | C[C@H]1CNC(=O)c2cnn3ccc(nc23)N[C@H](C)c2cc(F)cc(F)c2O1 [Compound 1, (7S,13R)-9,11-difluoro-7,13-dimethyl-6,7,13,14-tetrahydro-1,15-ethenopyrazolo[4,3-f][1,4,8,10]benzoxatriazacyclotridecin-4(5H)-one] | 120 | 0.2 |
| 60 | C[C@H]1Nc2ccn3ncc(c3n2)C(=O)NCCOc2c(Br)cc(F)cc21 [Compound 5, (13R)-9-bromo-11-fluoro-13-methyl-6,7,13,14-tetrahydro-1,15-ethenopyrazolo[4,3-f][1,4,8,10]benzoxatriazacyclotridecin-4(5H)-one] | 200 | 5 |
| 3.97 | C[C@H]1CNC(=O)c2cnn3ccc(nc23)N[C@H](C)c2cc(F)cc(Cl)c2O1 [Compound 8, (7S,13R)-9-chloro-11-fluoro-7,13-dimethyl-6,7,13,14-tetrahydro-1,15-ethenopyrazolo[4,3-f][1,4,8,10]benzoxatriazacyclotridecin-4(5H)-one] | 83.7 | 0.2 |
| 9.67 | CC(C)N1Cc2cc(F)cc(F)c2OCCCNC(=O)c2cnn3ccc1nc23 [Compound 12, 10,12-difluoro-15-(propan-2-yl)-5,6,7,8,14,15-hexahydro-4H-1,16-ethenopyrazolo[4,3-g][1,5,9,11]benzoxatriazacyclotetradecin-4-one] | 5000 | 0.2 |
| 5.54 | CC(C)N1Cc2c(ccc(F)c2Cl)OCCNC(=O)c2cnn3ccc1nc23 [Compound 13, 12-chloro-11-fluoro-14-(propan-2-yl)-6,7,13,14-tetrahydro-1,15-ethenopyrazolo[4,3-f][1,4,8,10]benzoxatriazacyclotridecin-4(5H)-one] | 10000 | 300 |
| 0.536 | CC(C)N1Cc2c(ccc(F)c2Cl)O[C@@H](C)CNC(=O)c2cnn3ccc1nc23 [Compound 14, (7S)-12-chloro-11-fluoro-7-methyl-14-(propan-2-yl)-6,7,13,14-tetrahydro-1,15-ethenopyrazolo[4,3-f][1,4,8,10]benzoxatriazacyclotridecin-4(5H)-one] | 1500 | 0.2 |
| 60 | C[C@H]1CNC(=O)c2cnn3ccc(nc23)N[C@H](C)c2cc(F)cc(-c3cnn(C)c3)c2O1 [Compound 18, (7S,13R)-11-fluoro-7,13-dimethyl-9-(1-methyl-1H-pyrazol-4-yl)-6,7,13,14-tetrahydro-1,15-ethenopyrazolo[4,3-f][1,4,8,10]benzoxatriazacyclotridecin-4(5H)-one] | 600 | 23.5 |
| 476 | C[C@H]1Nc2ccn3ncc(c3n2)C(=O)NCCOc2c(-c3cnn(C)c3)cc(F)cc21 [Compound 19, (13R)-11-fluoro-13-methyl-9-(1-methyl-1H-pyrazol-4-yl)-6,7,13,14-tetrahydro-1,15-ethenopyrazolo[4,3-f][1,4,8,10]benzoxatriazacyclotridecin-4(5H)-one] | 1000 | 53.4 |
